According to ChEMBL document CHEMBL1148615, “3-Amino-1,4,5,6-tetrahydropyrrolo[3,4-c]pyrazoles: a new class of CDK2 inhibitors” (Bioorg Med Chem Lett, 2006):
Values after ≈ are worked out from the molar mass of the structure shown. Active and inactive are the calls of the source. The rule behind the calls is not given here.

Columns and labels:
[1] = target: Cyclin-dependent kinase 2/cyclin E (Homo sapiens, UniProt P24941); test: Inhibitory activity against CDK2/Cyclin E; assay type: protein-complex assay
[2] = target: Cyclin-dependent kinase 1/cyclin B (Homo sapiens, UniProt P06493); test: Inhibitory activity against CDK1/Cyclin B; assay type: protein-complex assay
[3] = target: Cyclin-dependent kinase 4/cyclin D1 (Homo sapiens, UniProt P11802); test: Inhibitory activity against CDK4/Cyclin D1; assay type: protein-complex assay
[4] = target: Cyclin-dependent kinase 5/CDK5 activator 1 (Homo sapiens, UniProt Q00535); test: Inhibitory activity against CDK5/p25; assay type: protein-complex assay
[5] = target: Glycogen synthase kinase-3 beta (Homo sapiens, UniProt P49841); test: Inhibitory activity against GSK3-beta
[6] = target: Mitogen-activated protein kinase 1 (Homo sapiens, UniProt P28482); test: Inhibitory activity against p42MAPK
[7] = test system: HCT-116; test: Antiproliferative activity against HCT116 cells; assay type: functional, cell-based; conditions: Homo sapiens
[8] = test system: HT-29; test: Antiproliferative activity against HT29 cells; assay type: functional, cell-based; conditions: Homo sapiens
[9] = Solubility in buffer; assay type: physicochemical
[10] = target: Cytochrome P450 3A4 (Homo sapiens, UniProt P08684); test: Metabolic stability in presence of CYP3A4; assay type: ADME
[11] = Plasma protein binding; assay type: ADME, cell-free; conditions: human, read-out: PPB (converted)
[12] = test system: HT-29; test: Cell cycle arrest in HT29 cells by accumulation at G1/S phase; assay type: functional, cell-based; conditions: Homo sapiens
[13] = test system: HT-29; test: Incorporation of BrdU in HT29 cells; assay type: functional, cell-based; conditions: Homo sapiens
[14] = target: T1, Cyclin-dependent kinase 2/cyclin A (Homo sapiens) (UniProt P24941+P20248+P78396); test: Inhibition of hyperphosphorylation of pRb by CDK2/cyclin A at 3 uM; assay type: functional
[15] = target: Cyclin-dependent kinase 2/cyclin A (Homo sapiens, UniProt P24941); test: Inhibitory activity against CDK2/Cyclin A; assay type: protein-complex assay
[16] = target: T2, Aurora kinase A (Homo sapiens, UniProt O14965); test: Inhibitory activity against Aurora A kinase
T2 sequence (O14965 whole entry): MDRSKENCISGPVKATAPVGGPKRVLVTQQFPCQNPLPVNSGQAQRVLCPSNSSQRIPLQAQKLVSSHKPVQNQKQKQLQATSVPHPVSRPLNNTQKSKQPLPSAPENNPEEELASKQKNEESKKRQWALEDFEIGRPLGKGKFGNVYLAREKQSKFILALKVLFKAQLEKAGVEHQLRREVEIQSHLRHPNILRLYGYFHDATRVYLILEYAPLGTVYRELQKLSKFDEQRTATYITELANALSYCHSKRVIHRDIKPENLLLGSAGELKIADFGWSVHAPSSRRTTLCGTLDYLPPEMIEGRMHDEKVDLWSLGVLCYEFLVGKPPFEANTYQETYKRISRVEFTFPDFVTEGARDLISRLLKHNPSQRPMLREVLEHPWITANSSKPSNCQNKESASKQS

[17] = test system: A2780; test: Antiproliferative activity against A2780 cells; assay type: functional, cell-based; conditions: Homo sapiens
[18] = target: T1, Cyclin-dependent kinase 2/cyclin A (Homo sapiens); test: Inhibition of hyperphosphorylation of pRb by CDK2/cyclin A at 1 uM; assay type: functional

Chain of Cytochrome P450 3A4 (P08684 whole entry): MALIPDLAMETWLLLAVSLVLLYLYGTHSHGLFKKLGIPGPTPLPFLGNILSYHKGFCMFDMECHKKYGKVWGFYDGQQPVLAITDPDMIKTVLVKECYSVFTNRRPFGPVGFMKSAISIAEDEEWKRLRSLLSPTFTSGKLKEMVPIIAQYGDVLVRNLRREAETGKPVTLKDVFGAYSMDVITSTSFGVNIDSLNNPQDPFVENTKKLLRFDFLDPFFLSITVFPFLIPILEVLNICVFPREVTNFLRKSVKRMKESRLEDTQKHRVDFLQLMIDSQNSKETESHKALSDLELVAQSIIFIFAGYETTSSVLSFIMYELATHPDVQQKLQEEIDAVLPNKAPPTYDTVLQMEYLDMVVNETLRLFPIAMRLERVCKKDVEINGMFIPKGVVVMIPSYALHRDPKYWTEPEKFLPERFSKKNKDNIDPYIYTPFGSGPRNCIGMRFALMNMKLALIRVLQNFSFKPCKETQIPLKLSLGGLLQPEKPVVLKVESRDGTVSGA
Chain of Cyclin-dependent kinase 4/cyclin D1 (P11802 whole entry): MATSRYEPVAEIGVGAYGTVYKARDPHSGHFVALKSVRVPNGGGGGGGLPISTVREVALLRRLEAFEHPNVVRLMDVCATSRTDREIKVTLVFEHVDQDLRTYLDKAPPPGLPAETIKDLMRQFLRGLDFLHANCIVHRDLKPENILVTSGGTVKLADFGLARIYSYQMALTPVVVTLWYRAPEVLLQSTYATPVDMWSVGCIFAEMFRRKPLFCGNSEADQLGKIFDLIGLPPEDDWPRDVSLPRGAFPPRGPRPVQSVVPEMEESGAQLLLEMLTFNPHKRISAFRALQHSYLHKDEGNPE
Chain of Cyclin-dependent kinase 4/cyclin D1 (P24385 whole entry, further chain): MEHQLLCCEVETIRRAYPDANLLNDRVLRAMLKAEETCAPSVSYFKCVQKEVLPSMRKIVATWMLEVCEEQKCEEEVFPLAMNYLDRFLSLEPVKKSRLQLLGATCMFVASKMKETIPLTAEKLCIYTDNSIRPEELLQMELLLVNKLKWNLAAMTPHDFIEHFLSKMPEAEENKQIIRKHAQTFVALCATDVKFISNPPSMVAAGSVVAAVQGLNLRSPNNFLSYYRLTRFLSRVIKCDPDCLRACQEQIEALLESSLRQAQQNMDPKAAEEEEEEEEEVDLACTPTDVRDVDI
Chain of Glycogen synthase kinase-3 beta (P49841 whole entry): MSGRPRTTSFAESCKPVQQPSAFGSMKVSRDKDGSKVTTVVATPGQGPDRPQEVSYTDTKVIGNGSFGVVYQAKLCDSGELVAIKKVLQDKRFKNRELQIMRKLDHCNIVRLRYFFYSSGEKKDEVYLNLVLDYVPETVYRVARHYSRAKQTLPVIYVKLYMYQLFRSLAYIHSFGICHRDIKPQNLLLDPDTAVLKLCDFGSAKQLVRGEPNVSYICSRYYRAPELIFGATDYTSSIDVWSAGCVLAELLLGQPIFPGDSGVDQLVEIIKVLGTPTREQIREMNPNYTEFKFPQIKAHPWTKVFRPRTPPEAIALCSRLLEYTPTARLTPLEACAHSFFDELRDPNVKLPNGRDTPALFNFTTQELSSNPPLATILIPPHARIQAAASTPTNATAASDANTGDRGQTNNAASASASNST
Chain of Mitogen-activated protein kinase 1 (P28482 whole entry): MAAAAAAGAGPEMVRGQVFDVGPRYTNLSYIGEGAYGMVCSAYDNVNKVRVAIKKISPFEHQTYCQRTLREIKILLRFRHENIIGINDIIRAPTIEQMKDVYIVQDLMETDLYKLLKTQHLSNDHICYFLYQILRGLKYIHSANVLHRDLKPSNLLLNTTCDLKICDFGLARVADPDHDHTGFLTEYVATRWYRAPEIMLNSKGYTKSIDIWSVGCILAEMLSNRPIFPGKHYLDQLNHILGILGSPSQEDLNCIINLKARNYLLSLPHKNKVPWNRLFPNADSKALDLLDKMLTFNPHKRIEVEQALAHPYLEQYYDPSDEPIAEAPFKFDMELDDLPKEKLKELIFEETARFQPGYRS
Chain of Cyclin-dependent kinase 5/CDK5 activator 1 (Q00535 whole entry): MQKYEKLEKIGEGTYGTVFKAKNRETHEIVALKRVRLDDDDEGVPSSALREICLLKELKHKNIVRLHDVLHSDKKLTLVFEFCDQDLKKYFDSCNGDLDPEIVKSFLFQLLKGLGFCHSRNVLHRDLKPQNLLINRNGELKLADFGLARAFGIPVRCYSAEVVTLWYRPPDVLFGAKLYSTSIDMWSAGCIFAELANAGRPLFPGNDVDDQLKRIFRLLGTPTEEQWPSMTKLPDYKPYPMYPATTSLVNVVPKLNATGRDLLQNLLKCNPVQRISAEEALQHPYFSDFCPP
Chain of Cyclin-dependent kinase 5/CDK5 activator 1 (Q15078 whole entry, further chain): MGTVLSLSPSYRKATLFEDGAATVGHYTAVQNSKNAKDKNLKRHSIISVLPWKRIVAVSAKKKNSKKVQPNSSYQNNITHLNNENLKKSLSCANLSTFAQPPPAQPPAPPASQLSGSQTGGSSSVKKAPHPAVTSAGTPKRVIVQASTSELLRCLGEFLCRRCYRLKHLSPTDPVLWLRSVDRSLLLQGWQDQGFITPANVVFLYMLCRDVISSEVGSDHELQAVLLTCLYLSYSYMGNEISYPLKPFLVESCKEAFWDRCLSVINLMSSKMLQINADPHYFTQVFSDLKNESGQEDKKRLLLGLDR

IC50 [15] [nM] | IC50 [16] [nM] | Structure (SMILES) | other results
51 | > 10000 | CCCCNC(=O)N1Cc2n[nH]c(NC(=O)Cc3ccccc3F)c2C1 | –
120 | 390 | CC(C)NC(=O)N1Cc2n[nH]c(NC(=O)c3ccc4c(c3)OCO4)c2C1 | –
430 | 160 | CC(C)C(=O)N1Cc2n[nH]c(NC(=O)c3ccc4c(c3)OCO4)c2C1 | –
45 | > 10000 | CCCCNC(=O)N1Cc2n[nH]c(NC(=O)Cc3ccc4ccccc4c3)c2C1 | IC50 [17]: 540 nM
30 | > 10000 | NC(=O)N1Cc2n[nH]c(NC(=O)Cc3ccccc3)c2C1 | –
440 | 2310 | CC(=O)N1Cc2n[nH]c(NC(=O)Cc3ccccc3)c2C1 | –
1370 | 660 | COc1ccc(C(=O)Nc2[nH]nc3c2CN(C(C)=O)C3)cc1 | –
730 | > 10000 | O=C(Cc1ccccc1)Nc1[nH]nc2c1CN(C(=O)Nc1ccccc1)C2 | –
2110 | 4850 | CC(=O)N1Cc2n[nH]c(NC(=O)c3cccc(F)c3)c2C1 | –
1080 | 2140 | CC(=O)N1Cc2n[nH]c(NC(=O)c3ccc(C)cc3)c2C1 | –
1050 | 440 | Cc1ccc(C(=O)Nc2[nH]nc3c2CN(C(=O)c2cccc4cccnc24)C3)cc1 | –
51 | > 10000 | CCCCNC(=O)N1Cc2n[nH]c(NC(=O)Cc3ccc(N4CCCC4=O)cc3)c2C1 | IC50 [17]: 8270 nM
1590 | 8500 | CC(=O)N1Cc2n[nH]c(NC(=O)c3ccc(C#N)cc3)c2C1 | –
1150 | 3110 | CC(=O)N1Cc2n[nH]c(NC(=O)c3ccccc3)c2C1 | –
2540 | > 10000 | CC(=O)N1Cc2n[nH]c(NC(=O)c3ccc(F)cc3)c2C1 | –
2760 | > 10000 | CC(=O)N1Cc2n[nH]c(NC(=O)c3ccc4c(c3)OCO4)c2C1 | –

Structure (SMILES) | IC50 [15] [nM] | IC50 [16] [nM] | other results
CCCCNC(=O)N1Cc2n[nH]c(NC(=O)[C@@H](C)c3ccc4ccccc4c3)c2C1 | 36 | > 10000 | IC50 [1]: 90 nM; IC50 [2]: 750 nM; IC50 [3]: > 10000 nM; IC50 [4]: 150 nM; IC50 [5]: 50 nM; IC50 [6]: 380 nM; IC50 [7]: 120 nM; IC50 [8]: 70 nM; solubility [9]: 27 µM (≈ 10.9 µg/mL); Stability [10]: 20%; fraction unbound [11]: 0.01; Activity [12]: Active; Activity [13]: inactive; Activity [14]: Active; IC50 [17]: 130 nM
CCCCNC(=O)N1Cc2n[nH]c(NC(=O)Cc3ccc(N4CCCC4)cc3)c2C1 | 33 | 4200 | IC50 [1]: 91 nM; IC50 [2]: 400 nM; IC50 [3]: > 10000 nM; IC50 [5]: 300 nM; IC50 [6]: 280 nM; IC50 [7]: 900 nM; IC50 [8]: 200 nM; solubility [9]: 39 µM (≈ 16 µg/mL); Stability [10]: 100%; fraction unbound [11]: 0.05; Activity [12]: Active; Activity [13]: inactive; Activity [18]: Active; IC50 [17]: 940 nM
